The nature of one series: logP. Conditions: for chromatographic logP: HCOOH (formic acid).
The next series has as its system Cooperia curticei. Kind of series: microbe, parasite or virus in culture. Conditions: 120 h, read-out: activity (larval mortality). How it is done:
Cooperia curticei-Test (COOPCU)
(§1) Solvent: dimethyl sulfoxide
(§2) To produce a suitable preparation of active compound, 10 mg of active compound are dissolved in 0.5 ml solvent, and the concentrate is diluted with “Ringer's solution” to the desired concentration.
Approximately 40 nematode larvae (Cooperia curticei) are transferred into a test tube containing the compound solution.
After 5 days percentage of larval mortality is recorded, 100% efficacy means all larvae are killed; 0% efficacy means no larvae are killed.

A further series relates to Haemonchus contortus. The experiment in a line: Haemonchus contortus-Test (HAEMCO), larval mortality. Conditions: 120 h, read-out: activity (larval mortality). How it is done: Haemonchus contortus-Test (HAEMCO)
as §1, §2
Approximately 40 larvae of the red stomach worm (Haemonchus contortus) are transferred into a test tube containing compound solution.
After 5 days percentage of larval mortality are recorded, 100% efficacy means all larvae are killed, 0% efficacy means no larvae are killed.

A further series relates to Meloidogyne incognita. The experiment in a line: Meloidogyne incognita-Test, gall formation on salad seedlings. The class given is in vivo. Conditions: 336 h, read-out: nematicidal activity (on the basis of gall formation). How it is done:
Meloidogyne incognita-Test
Solvent: 125.0 parts by weight of acetone
To produce a suitable preparation of active compound, 1 part by weight of active compound is mixed with the stated amount of solvent, and the concentrate is diluted with water to the desired concentration.
Vessels are filled with sand, a solution of the active ingredient, a suspension containing eggs and larvae of the southern root-knot nematode (Meloidogyne incognita) and salad seeds. The salad seeds germinate and the seedlings grow. Galls develop in the roots.
After 14 days the nematicidal activity is determined on the basis of the percentage of gall formation. 100% means no galls were found and 0% means the number of galls found on the roots of the treated plants was equal to that in untreated control plants.

Series [1] has as its system Nippostrongylus brasiliensis. Kind of series: Nippostrongylus brasiliensis-Test (NIPOBR), in vitro efficacy, acetylcholine esterase readout. Conditions: 10 μg/ml, read-out: activity (reduction of AChe compared to negative control). Here is the method: Nippostrongylus brasiliensis-Test (NIPOBR) (In Vitro Efficacy Test)
Adult Nippostrongylus brasiliensis were washed with saline buffer containing 100 U/ml penicillin, 0.1 mg/ml streptomycin and 2.5 μg/ml amphotericin B. Test compounds were dissolved in DMSO, and worms were incubated in medium in a final concentration of 10 μg/ml. An aliquot of the medium was used to determine the acetylcholine esterase activity in comparison to a negative control. The principle of measuring acetylcholine esterase as readout for anthelmintic activity was described in Rapson et al (1986) and Rapson et al (1987).

This is an account of results in patent US9868719B2, “Compounds with pesticidal activity” (BAYER CROPSCIENCE AKTIENGESELLSCHAFT, priority 2013, dated 2018).

SMILES strings stand for the structures. Like-named read-outs stand apart in the source and are kept apart here.

`O=C(NCCc1ncc(-n2ccnc2)cc1Cl)c1ccccc1C(F)(F)F` [Example 1] showed a chromatographic logP in “logP” of 1.21. The mortality at 20 ppm in the series on Cooperia curticei (20 ppm, after 5 days) is 100%; with Haemonchus contortus (20 ppm, after 5 days), 80%.
For `O=C(NCCc1ncc(-n2cc(C(F)(F)F)cn2)cc1Cl)c1ccccc1C(F)(F)F` [Example 2], the mortality at 20 ppm in the series with Cooperia curticei and in the series with Haemonchus contortus was 100% each time. Moreover, the chromatographic logP in “physchem” is 3.65. The pest or weed control at 20 ppm in the series with Meloidogyne incognita was determined as 1%. Moreover, the inhibition at 10 µg/mL in series [1] was at least 60%.
Regarding `O=C(NCCc1ncc(-n2ccc(C(F)(F)F)n2)cc1Cl)c1ccccc1C(F)(F)F` [Example 3], the mortality at 20 ppm in the series with Cooperia curticei and with Haemonchus contortus was 100% throughout. The molecule further yielded a chromatographic logP in “physchem” of 3.68. Moreover, the pest or weed control at 20 ppm with Meloidogyne incognita turned out to be 1%. Also, in series [1], the inhibition at 10 µg/mL was at least 60%.
On to `O=C(NCCc1ncc(-n2cccn2)cc1Cl)c1ccccc1C(F)(F)F` [Example 4, N-{2-[3-chloro-5-(1H-pyrazol-1-yl)pyridin-2-yl]ethyl}-2-(trifluoromethyl)benzamide], for which the mortality at 20 ppm in the series with Cooperia curticei and in the series on Haemonchus contortus was 100% throughout. The chromatographic logP in “physchem” amounted to 2.69. Besides, the pest or weed control at 20 ppm in the series on Meloidogyne incognita is 1%. Further, in series [1], the inhibition at 10 µg/mL is at least 60%.
Take `O=C(NCCc1ncc(-n2cncn2)cc1Cl)c1ccccc1C(F)(F)F` [Example 5]: the chromatographic logP in the series “logP” was found to be 2.06. In addition, in the series with Meloidogyne incognita (20 ppm, after 14 days), the pest or weed control at 20 ppm came to 1%. The mortality at 20 ppm with Haemonchus contortus came to 90%.
In “logP”, `O=C(NCCc1ncc(-c2ccc(Cl)nc2)cc1Cl)c1ccccc1C(F)(F)F` [Example 6] displayed a chromatographic logP of 3. Moreover, the mortality at 20 ppm in the series on Cooperia curticei and in the series with Haemonchus contortus was 100% in each case. The pest or weed control at 20 ppm in the series on Meloidogyne incognita (20 ppm, after 14 days) was determined as 1%.
Molecule `O=C(NCCc1ncc(-c2ccc(C(F)(F)F)nc2)cc1Cl)c1ccccc1C(F)(F)F` [Example 7, N-{2-[5-chloro-6′-(trifluoromethyl)-3,3′-bipyridin-6-yl]ethyl}-2-(trifluoromethyl) benzamide] gave a chromatographic logP in “logP” of 3.29. Besides, the mortality at 20 ppm in the series on Cooperia curticei amounted to 100%; with Haemonchus contortus, 90%. In the series on Meloidogyne incognita (20 ppm, after 14 days), the pest or weed control at 20 ppm was found to be 90%.
With `O=C(NCC(F)(F)c1ncc(-c2ccoc2)cc1Cl)c1ccccc1C(F)(F)F` [Example 8], the mortality at 20 ppm in the series on Cooperia curticei turned out to be 100%.
Take `Cc1occc1-c1cnc(C(F)(F)CNC(=O)c2ccccc2C(F)(F)F)c(Cl)c1` [Example 9]: the mortality at 20 ppm in the series on Cooperia curticei was determined as 100%; with Haemonchus contortus, 90%.
On to `O=C(NCC(F)(F)c1ncc(-c2cncc(F)c2)cc1Cl)c1ccccc1C(F)(F)F` [Example 10], for which the mortality at 20 ppm with Cooperia curticei and in the series on Haemonchus contortus was 100% each time. Also, the chromatographic logP in the series “physchem” came out at 2.84. Moreover, in the series on Meloidogyne incognita, the pest or weed control at 20 ppm stood at 1%. For the same molecule, the inhibition at 10 µg/mL in series [1] is at least 60%.
For the molecule `O=C(NCC(F)(F)c1ncc(-c2ccc(C(F)(F)F)nc2)cc1Cl)c1ccccc1C(F)(F)F` [Example 11, N-{2-[5-chloro-6′-(trifluoromethyl)-3,3′-bipyridin-6-yl]-2,2-difluoroethyl}-2-(trifluoromethyl) benzamide], in the series “logP”, the chromatographic logP was determined as 3.42. Further, the mortality at 20 ppm in the series with Cooperia curticei is 100%; in the series with Haemonchus contortus it was 90%.
For `O=C(NCC(F)(F)c1ncc(-c2ccc(Cl)nc2)cc1Cl)c1ccccc1C(F)(F)F` [Example 12], the chromatographic logP in “logP” turned out to be 3.21. For the same molecule, the mortality at 20 ppm is 100% with Cooperia curticei and 90% in the series on Haemonchus contortus. Further, the pest or weed control at 20 ppm in the series with Meloidogyne incognita (20 ppm, after 14 days) was 90%.
`Cc1ncccc1-c1cnc(C(F)(F)CNC(=O)c2ccccc2C(F)(F)F)c(Cl)c1` [Example 13]: the chromatographic logP in the series “logP” turned out to be 1.86. For the same molecule, in the series with Cooperia curticei (20 ppm, after 5 days), the mortality at 20 ppm was found to be 90%. For the same molecule, the pest or weed control at 20 ppm in the series on Meloidogyne incognita (20 ppm, after 14 days) turned out to be 90%.
`O=C(NCC(F)(F)c1ncc(-c2cccnc2Cl)cc1Cl)c1ccccc1C(F)(F)F` [Example 14]: the mortality at 20 ppm with Cooperia curticei and in the series with Haemonchus contortus was 100% in each case. The molecule also had a chromatographic logP in the series “physchem” of 3. In addition, in the series on Meloidogyne incognita, the pest or weed control at 20 ppm came out at 1%. Further, the inhibition at 10 µg/mL in series [1] is at least 60%.
`CC(C)Oc1ccc(-c2cnc(C(F)(F)CNC(=O)c3ccccc3C(F)(F)F)c(Cl)c2)cn1` [Example 17] came in with a chromatographic logP in “logP” of 4.15. The mortality at 20 ppm in the series with Cooperia curticei turned out to be 100%; in the series with Haemonchus contortus it was 90%.
Regarding `O=C(NCC(F)(F)c1ncc(-c2ccc(Cl)nc2Cl)cc1Cl)c1ccccc1C(F)(F)F` [Example 18], in the series “logP”, the chromatographic logP is 3.68. Moreover, the mortality at 20 ppm in the series on Cooperia curticei was determined as 100%; with Haemonchus contortus, 80%. In addition, the pest or weed control at 20 ppm with Meloidogyne incognita (20 ppm, after 14 days) was determined as 1%.
`O=C(NCC(F)(F)c1ncc(-c2cccnc2)cc1Cl)c1ccccc1C(F)(F)F` [Example 19]: the mortality at 20 ppm in the series on Cooperia curticei and with Haemonchus contortus was 100% in each case. The same molecule gave a chromatographic logP in “physchem” of 2.27. Besides, the inhibition at 10 µg/mL in series [1] was at least 60%.
With `O=C(NCC(F)(F)c1ncc(-c2ccc(OCC(F)(F)F)nc2)cc1Cl)c1ccccc1C(F)(F)F` [Example 20], the chromatographic logP in the series “logP” is 3.94. For the same molecule, the mortality at 20 ppm with Cooperia curticei and in the series on Haemonchus contortus was 100% throughout. In addition, the pest or weed control at 20 ppm with Meloidogyne incognita (20 ppm, after 14 days) was 90%.
As to `O=C(NCC(F)(F)c1ncc(-c2cnccc2Cl)cc1Cl)c1ccccc1C(F)(F)F` [Example 21], the chromatographic logP in “logP” was determined as 2.88. Further, the mortality at 20 ppm in the series with Cooperia curticei worked out at 80%.
In turn, `O=C(NCC(F)(F)c1ncc(-c2ccncc2)cc1Cl)c1ccccc1C(F)(F)F` [Example 22] had a chromatographic logP in “logP” of 2. The mortality at 20 ppm was 100% with Cooperia curticei and 90% with Haemonchus contortus.
`O=C(NCC(F)(F)c1ncc(-c2ccnc(F)c2)cc1Cl)c1ccccc1C(F)(F)F` [Example 23] displayed a chromatographic logP in the series “logP” of 2.96. Besides, the mortality at 20 ppm with Cooperia curticei and in the series with Haemonchus contortus was 100% in each case. The pest or weed control at 20 ppm in the series with Meloidogyne incognita (20 ppm, after 14 days) worked out at 1%.
The molecule `O=C(NCC(F)(F)c1ncc(-c2ccnc(Cl)c2)cc1Cl)c1ccccc1C(F)(F)F` [Example 24] registered a chromatographic logP in “logP” of 3.17. In addition, the mortality at 20 ppm with Cooperia curticei and in the series with Haemonchus contortus was 100% throughout. In the series on Meloidogyne incognita (20 ppm, after 14 days), the pest or weed control at 20 ppm is 1%.
Turning to `O=C(NCC(F)(F)c1ncc(-n2cc(C(F)(F)F)cn2)cc1Cl)c1ccccc1C(F)(F)F` [Example 28], the mortality at 20 ppm in the series on Cooperia curticei and in the series on Haemonchus contortus was 100% each time. For the same molecule, the pest or weed control at 20 ppm in the series with Meloidogyne incognita is 1%. In addition, in series [1], the inhibition at 10 µg/mL is at least 60%.
Molecule `O=C(NCC(F)(F)c1ncc(-c2ccc(F)cn2)cc1Cl)c1cccnc1C(F)(F)F` [Example 29] yielded a chromatographic logP in “logP” of 2.57. Further, in the series on Meloidogyne incognita (20 ppm, after 14 days), the pest or weed control at 20 ppm is 1%.
`O=C(NCC(F)(F)c1ncc(-c2ccc(F)cn2)cc1Cl)c1nccnc1C(F)(F)F` [Example 30] showed a chromatographic logP in the series “logP” of 2.75.
Same read-out and setting: as for `CC(F)(CNC(=O)c1ccccc1C(F)(F)F)c1ncc(-c2ccc(F)nc2)cc1Cl` (centres unmarked) [Example 31], the figure is 3.94.
On the same count and under the same terms, then `CC(F)(CNC(=O)c1cccnc1C(F)(F)F)c1ncc(-c2ccc(F)nc2)cc1Cl` (centres unmarked) [Example 32], with 2.66.
On the same count and under the same terms, then `CC(F)(CNC(=O)c1ccccc1C(F)(F)F)c1ncc(-c2ccc(Cl)nc2)cc1Cl` (centres unmarked) [Example 33], with 3.26.
As for `CC(F)(CNC(=O)c1ccccc1C(F)(F)F)c1ncc(-c2ccc(C(F)(F)F)nc2)cc1Cl` (centres unmarked) [Example 35], in the series “logP”, the logP was 3.55.
For the molecule `CC(F)(CNC(=O)c1cccnc1C(F)(F)F)c1ncc(-c2ccc(C(F)(F)F)nc2)cc1Cl` (centres unmarked) [Example 36], in “logP”, the chromatographic logP worked out at 3.17.
The same measure, in the same setting: as for `Cc1ccc(-c2cnc(C(C)(F)CNC(=O)c3ccccc3C(F)(F)F)c(Cl)c2)cn1` (centres unmarked) [Example 37], the figure is 3.79; as for `Cc1ccc(-c2cnc(C(C)(F)CNC(=O)c3cccnc3C(F)(F)F)c(Cl)c2)cn1` (centres unmarked) [Example 38], 1.69.
Same read-out and setting: as for `CC(F)(CNC(=O)c1ccccc1C(F)(F)F)c1ncc(-c2cncc(F)c2)cc1Cl` (centres unmarked) [Example 39], the figure is 2.99; as for `CC(F)(CNC(=O)c1cccnc1C(F)(F)F)c1ncc(-c2cncc(F)c2)cc1Cl` (centres unmarked) [Example 40], 2.49.
The same measure, in the same setting: then `O=C(NCC(F)(F)c1ncc(-c2cc(F)c(F)cn2)cc1Cl)c1ccccc1C(F)(F)F` [Example 41], with 3.28.
Turning to `CN(C)c1ccc(-c2cnc(C(F)(F)CNC(=O)c3ccccc3C(F)(F)F)c(Cl)c2)cn1` [Example 42], the chromatographic logP in “logP” amounted to 1.97.
